# The source made the active and inactive calls. The calls are words filed in the database; no cut-off is given here. Non-standard residues stand in square brackets, D forms with d. Residues, ends and D or L forms follow the SMILES beside them. *: point of attachment. dNMeF = CN[C@H](Cc1ccccc1)C(=O)O; Cha = N[C@@H](CC1CCCCC1)C(=O)O; NMeK = CN[C@@H](CCCCN)C(=O)O; Boc = CC(C)(C)OC(=O)*; Bn = c1ccc(C*)cc1
# Columns and labels:
# [1] = tested on: HCT-116; experiment: Cytotoxicity against human HCT116 cells at 10 uM after 72 hrs by [3H]thymidine incorporation assay; settings: read-out: GI
# [2] = tested on: HCT-116; experiment: Cytotoxicity against human HCT116 cells after 72 hrs by [3H]thymidine incorporation assay
# [3] = Inhibition of Hsp90 assessed as Her2 interaction at up to 11 uM by Western blotting
# [4] = Inhibition of Hsp90 assessed as IP6K2 interaction at up to 11 uM by Western blotting
# [5] = Solubility of the compound; type: physicochemical
# [6] = Chemical stability of the compound assessed as half life; type: physicochemical
# [7] = Efflux ratio of permeability in human Caco-2 cells; type: ADME, cell-based
SMILES,inhibition of growth at 10 µM [1],also measured
CC(C)C[C@@H]1NC(=O)[C@H](Cc2ccccc2)NC(=O)[C@H](CCCCNC(=O)OC(C)(C)C)NC(=O)[C@H](CC(C)C)NC(=O)[C@@H](C(C)C)NC1=O,9%,
CC(C)C[C@@H]1NC(=O)[C@H](Cc2ccccc2)NC(=O)[C@H](CCCCNC(=O)OC(C)(C)C)NC(=O)[C@H](CC(C)C)NC(=O)[C@H](C(C)C)NC1=O,0%,
CC(C)C[C@@H]1NC(=O)[C@H]([C@@H](OCc2ccccc2)c2ccccc2)NC(=O)[C@@H](Cc2ccccc2)NC(=O)[C@@H](CC(C)C)NC(=O)[C@H](C(C)C)N(C)C1=O,64%,IC50 [2]: 5.8 µM
CC(C)C[C@@H]1NC(=O)[C@H](Cc2ccccc2)NC(=O)[C@H](CC(C)C)N(C)C(=O)[C@H](CC(C)C)NC(=O)[C@H](C(C)C)NC1=O,35%,
CC(C)C[C@@H]1NC(=O)[C@H](Cc2ccccc2)NC(=O)[C@H](CCCCN)N(C)C(=O)[C@H](CC(C)C)NC(=O)[C@H](C(C)C)NC1=O (cyclo(FLVL[NMeK])),0%,
CC(C)C[C@@H]1NC(=O)[C@H](Cc2ccccc2)NC(=O)[C@H](CCCCNC(=O)OC(C)(C)C)N(C)C(=O)[C@H](CC(C)C)NC(=O)[C@H](C(C)C)NC1=O (cyclo(FLVL[NMeK](Boc))),58%,
CC(C)C[C@@H]1NC(=O)[C@H](CC(C)C)NC(=O)[C@H](C(C)C)NC(=O)[C@@H](Cc2ccccc2)NC(=O)[C@H](Cc2ccccc2)NC1=O,21%,
CC(C)C[C@@H]1NC(=O)[C@@H](Cc2ccccc2)NC(=O)[C@@H](CC(C)C)NC(=O)[C@H](CC(C)C)N(C)C(=O)[C@H](C(C)C)NC1=O,18%,
CC(C)C[C@@H]1NC(=O)[C@H](CC(C)C)NC(=O)[C@@H](C(C)C)NC(=O)[C@@H](Cc2ccccc2)NC(=O)[C@H](Cc2ccccc2)NC1=O,4%,
CC(C)[C@H]1NC(=O)[C@@H](Cc2ccccc2)NC(=O)[C@H](Cc2ccccc2)NC(=O)[C@H](COCc2ccccc2)NC(=O)[C@H](CC2CCCCC2)NC1=O (cyclo([Cha]S(Bn)F[dF][dV])),10%,inhibition [3]: inactive; inhibition [4]: inactive
CC(C)[C@H]1NC(=O)[C@@H](Cc2ccccc2)N(C)C(=O)[C@H](Cc2ccccc2)NC(=O)[C@H](COCc2ccccc2)NC(=O)[C@H](CC2CCCCC2)NC1=O (cyclo([Cha]S(Bn)F[dNMeF][dV])),93%,solubility [5]: < 5 µM; inhibition [3]: Active; inhibition [4]: Active; IC50 [2]: ≤ 1.9 µM
CC(C)C[C@@H]1NC(=O)[C@@H](Cc2ccccc2)NC(=O)[C@@H](Cc2ccccc2)NC(=O)[C@@H](CC(C)C)N(C)C(=O)[C@H](C(C)C)N(C)C1=O,15%,
CC(C)C[C@@H]1NC(=O)[C@H](Cc2ccccc2)NC(=O)[C@@H](CC(C)C)N(C)C(=O)[C@H](CC(C)C)NC(=O)[C@H](C(C)C)NC1=O,32%,
CC(C)C[C@@H]1NC(=O)[C@H](CC(C)C)NC(=O)[C@@H](C(C)C)NC(=O)[C@H](CC(C)C)NC(=O)[C@H](Cc2ccccc2)NC1=O,8%,
CC(C)C[C@@H]1NC(=O)[C@H](CC(C)C)NC(=O)[C@H](C(C)C)NC(=O)[C@H](CC(C)C)NC(=O)[C@H](Cc2ccccc2)NC1=O,,IC50 [2]: 19.7 µM
CC(C)C[C@@H]1NC(=O)[C@@H](C(C)C)NC(=O)[C@@H](CC(C)C)NC(=O)[C@H](Cc2ccccc2)N(C)C(=O)[C@H](CC(C)C)NC1=O,30%,
CC(C)C[C@@H]1NC(=O)[C@H](C(C)C)NC(=O)[C@@H](CC(C)C)NC(=O)[C@@H](Cc2ccccc2)NC(=O)[C@H](CC(C)C)N(C)C1=O,15%,

SMILES,inhibition of growth at 10 µM [1],also measured
CC(C)C[C@@H]1NC(=O)[C@@H]([C@@H](OCc2ccccc2)c2ccccc2)NC(=O)[C@@H](Cc2ccccc2)NC(=O)[C@@H](CC(C)C)NC(=O)[C@H](C(C)C)N(C)C1=O (mixture of isomers),63%,IC50 [2]: 8.9 µM
CC(C)C[C@@H]1NC(=O)[C@H](CC(C)C)NC(=O)[C@H](C(C)C)NC(=O)[C@H](CC(C)C)NC(=O)[C@@H](Cc2ccc(O)cc2)NC1=O,50%,
CC(C)C[C@@H]1NC(=O)[C@H](CC(C)C)NC(=O)[C@H](C(C)C)NC(=O)[C@H](CC(C)C)NC(=O)[C@@H](Cc2ccccc2)NC1=O,26%,
CC(C)C[C@@H]1NC(=O)[C@H](CC(C)C)NC(=O)[C@H](C(C)C)NC(=O)[C@H](CC(C)C)NC(=O)[C@@H](Cc2c[nH]c3ccccc23)NC1=O,30%,
CC(C)C[C@@H]1NC(=O)[C@@H]([C@H](OCc2ccccc2)c2ccccc2)NC(=O)[C@@H](Cc2ccccc2)NC(=O)[C@@H](CC(C)C)NC(=O)[C@H](C(C)C)N(C)C1=O,94%,solubility [5]: 7 µM; half-life [6]: > 2.87 h; efflux ratio [7]: 3; IC50 [2]: 3.2 µM
CC(C)C[C@@H]1NC(=O)[C@H](C(C)C)NC(=O)[C@@H](Cc2ccccc2)N(C)C(=O)[C@H](Cc2ccccc2)NC(=O)[C@@H](CC(C)C)N(C)C1=O,47%,
CC(C)C[C@@H]1NC(=O)[C@H](CC(C)C)NC(=O)[C@H](C(C)C)NC(=O)[C@@H](Cc2ccccc2)N(C)C(=O)[C@H](Cc2ccccc2)NC1=O,99%,
CC(C)C[C@@H]1NC(=O)[C@H](Cc2ccccc2)NC(=O)[C@@H](Cc2ccccc2)NC(=O)[C@@H](CC(C)C)NC(=O)[C@H](C(C)C)NC1=O,28%,
CC(C)[C@H]1NC(=O)[C@@H](Cc2ccccc2)N(C)C(=O)[C@H](Cc2ccccc2)NC(=O)[C@H](CO)NC(=O)[C@H](CC2CCCCC2)NC1=O,18%,
CC(C)C[C@@H]1NC(=O)[C@@H](CC(C)C)NC(=O)[C@@H](C(C)C)NC(=O)[C@H](CC(C)C)N(C)C(=O)[C@H](Cc2ccccc2)NC1=O,30%,
CC(C)C[C@@H]1NC(=O)[C@H](Cc2ccccc2)NC(=O)[C@H](CCCCN)NC(=O)[C@H](CC(C)C)NC(=O)[C@H](C(C)C)NC1=O (cyclo(FLVLK)),0%,
CC(C)C[C@@H]1NC(=O)[C@H](Cc2ccccc2)NC(=O)[C@H](CCCCN)NC(=O)[C@H](CC(C)C)NC(=O)[C@@H](C(C)C)NC1=O (cyclo(FL[dV]LK)),0%,
CC(C)C[C@@H]1NC(=O)[C@H](CC(C)C)NC(=O)[C@H](C(C)C)NC(=O)[C@@H](CC(C)C)NC(=O)[C@@H](Cc2ccccc2)NC1=O,14%,
CC(C)C[C@@H]1NC(=O)[C@H](CC(C)C)N(C)C(=O)[C@H](C(C)C)NC(=O)[C@@H](CC(C)C)NC(=O)[C@H](Cc2ccccc2)NC1=O,3%,
CC(C)C[C@@H]1NC(=O)[C@H](Cc2ccccc2)NC(=O)[C@@H](Cc2ccccc2)NC(=O)[C@@H](CCCCNC(=O)OCc2ccccc2)NC(=O)[C@H](C(C)C)N(C)C1=O,36%,
CC(C)C[C@@H]1NC(=O)[C@H](C(C)C)NC(=O)[C@@H](Cc2ccccc2)N(C)C(=O)[C@H](Cc2ccccc2)NC(=O)[C@H](CCCCN)NC1=O (cyclo(F[dNMeF]VLK)),0%,
CC(C)C[C@@H]1NC(=O)[C@H](Cc2ccccc2)NC(=O)[C@@H](CC(C)C)NC(=O)[C@@H](CC(C)C)NC(=O)[C@H](C(C)C)NC1=O,20%,
